Experimental data as given in patent publication US7786042B2, “Fluridone as an anti-inflammatory agent” (Universita' Degli Studi Di Genova, priority 2005, dated 2010).
“Also recorded” adds a separate entry of the source.

Tests used:
human granulocytes [1] = assay: Intracellular cADPR content in granulocytes (enzymatic cycling assay); type: cell-based; settings: ABA 20 μM
Method: Panel A. GDP-ribosyl cyclase activity has been measured in granulocytes in the presence of increasing ABA concentrations, added together with the cyclase substrate NGD^+. The results are expressed as cyclase activity relative to control cells, incubated in the absence of ABA (mean ±SD from 5 determinations). Panel B. The intracellular concentration of cADPR was measured by enzymatic cycling assay (Materials and Methods) on granulcoytes incubated with 20 μM ABA for the periods of time indicated. The results are expressed as [cADPR]i relative to control cells, incubated without ABA (n=2).
The assays to determine the intracellular cADPR concentration ([cADPR]i) in granulocytes are known to the expert in the field. Granulocytes (40×10^6/ml in RPMI 1640) were incubated in the presence of 20 μM ABA and at various times 500 μl-aliquots were withdrawn and centrifuged (5,000×g for 15 s) to recover the cell pellets. Determination of the [cADPR]i was performed on perchloric acid cell extracts by an enzymatic cycling assay, as described in (Graeff, Biochem. J. 2002).

human granulocytes [2] = assay: Intracellular calcium [Ca2+]i in granulocytes; type: cell-based; settings: 10 min after addition of 10 μM ABA; basal value 50±2 nM; n=4
Method: Granlocytes were isolated by density gradient centrifugation from the peripheral blood of healthy donors, after informed consent. Contaminating erythrocytes were removed by hypotonic lysis. […] The increase of [cADPR]i in turn induces a progressive rise of [Ca^2+]i, from a basal value of 50±2 nM to 170±25 nM after 10 min from the addition of 10 μM ABA (n=4). […] The increase of the [Ca^2+]i induced by ABA in granulocytes is in turn responsible for activation of several functional activities typical of these cells. The functional effects induced by ABA (at concentrations ranging between 0.2 and 20 μM) in granulocytes include stimulation of the production of reactive oxygen species (ROS), measured through the cytochrome c […] (FIG. 2A), and of nitric oxide (NO), measured as accumulation of nitrite, the end-product of NO […] (FIG. 2B).

human granulocytes [3] = assay: ROS production by granulocytes (cytochrome c assay); type: cell-based; settings: ABA 0.2-20 μM
Method: Granulocytes were resuspended at 5×10^6/ml in HBSS and 225 μl of the cell suspension were added to 50 μl of 0.2 mM cytochrome c and were incubated for 30 min at 37° C. in the absence (control) or in the presence of 250 nM or 20 μM ABA, the latter concentration without or with 1 mM EDTA, 20 mM nicotinamide or 0.1 mM 8-Br-cADPR. The amount of ROS (panel A) or of NO (panel B) in the cell supernatant was measured as described in Materials and Methods. The results are expressed as the production relative to control cells, not stimulated with ABA, and are the mean ±SD from 5 experiments.
Release of superoxide (O2^−) by human granulocytes was quantified by a spectrophotometric assay of cytochrome c reduction (Cohen, J Clin Invest 1978). Granulocytes were resuspended in HBSS (at 5×10^6 cells/ml) and 225 μl of the cell suspension was incubated for 30 min at 37° C. with 50 μl cytochrome c (0.2 mM) in the absence (control) or in the presence of ABA at different concentrations. Then, cells were centrifuged at 5,000×g for 15 s and the absorbance of the supernatants was recorded at 550 nm (λmax for reduced cytocrome c).

[4] = tested on: murine microglia cell line N9; assay: Chemokinesis of murine microglia N9; type: cell-based; settings: ABA 0.2-20 μM
Method: Assays were performed using 96-well ChemoTx system microplates with a 3-μm pore size polycarbonate filter (NeuroProbe Inc., Gaithersburg, USA). Cells (granulocytes or murine microglia) were resuspended at 10^7/ml in HBSS, PBS and 5% albumin, 39:16:1 (chemotaxis buffer, CB). In order to evaluate the chemoattractant effect of ABA, hormone concentrations ranging from 50 nM to 20 μM were added in CB in the bottom wells and 25 μl cell suspensions were placed on top of the filter. To evaluate a possible stimulatory effect of ABA on spontaneous cell movements (chemokinesis), cells were pre-incubated with or without 20 μM ABA, then washed and placed on top of the filter, in contact with CB. Plates were incubated at 37° C. for 60 min and transmigrated cells were recovered and quantified by fluorimetric assay with Cytox Green. The number of transmigrated cells was calculated by comparison of the measured fluorescence with that of a standard curve, obtained by directly placing a serial dilution of cells in the bottom wells. The results of the chemotaxis experiments are expressed as “chemotaxis index” (CI): CI=number of cells migrated towards chemoattractant/number of cells migrated towards CB
The results of the chemokinesis experiments are expressed as number of ABA pre-treated cells migrated through the filter compared to control cells (not treated with ABA).

[5] = tested on: murine microglial cell line N9; assay: ABA content in murine microglia N9 by HPLC-MS; type: cell-based; settings: N9 cells; fluridone 50 μM together with LPS
Method: Cells from the murine microglial cell line N9 were pre-incubated with or without 50 μM fluridone for 2 hours and then stimulated with 100 ng/ml lipopolysaccharide (LPS) for 24 hours. The ABA content was measured by HPLC-MS (see Materials and Methods) and was compared with that of untreated cells (control). The results are the mean from 2 experiments.
N9 cells were seeded (25×10^6/flask) in IMDM medium containing fetal calf serum, incubated for 3 h at 37° C. with or without 50 μM fluridone and then incubated for 3 days in the absence or in the presence of 200 ng/ml lipopolysaccharide (LPS). Cells were then recovered, washed in phosphate-buffered saline isotonic solution at pH 7.4 (PBS), resuspended in 0.5 ml water and sonicated. […] A small aliquot of the extract was used to determine radioactivity (with a β-counter), allowing the calculation of the percentage of ABA recovery after-extraction. The rest of the extract was analyzed on an Agilent 1100 capillary chromatography system, with a diode array detector, equipped with a Waters Atlantis™ dC18 150×1 mm column, particle size 3 μm, coupled to an Agilent 1100 series LC/MSD Trap mass spectrometer, equipped with an orthogonal geometry electrospray source and ion trap analyser. […]

[6] = tested on: human granulocytes and lymphocytes; assay: ABA content in stimulated human granulocytes and lymphocytes (immunoassay for ABA); type: cell-based; settings: fluridone 10-50 μM
Method: The increase of the intracellular ABA concentration induced by f-MLP in granulocytes and by PMA in lymphocytes is inhibited by the addition of fluridone at micromolar concentrations (ranging between 10 and 50 μM) during cell incubation with the pro-inflammatory stimuli.

whole blood cells = assay: LPS-induced histamine release from blood cells; type: cell-based, human; settings: pre-incubation with 50 μM fluridone
Method: Whole blood was pre-incubated for 2 hours at 25° C. in the absence (control) or in the presence of 50 μM fluridone. Then, 100 ng/ml of lipopolysaccharide (LPS) was added to the blood at 37° C. for the time indicated. The histamine concentration in plasma was measured immunoenzymatically with a commercially available kit (IBL-Hamburg, Germany). The results are the mean ±SD from 3 experiments.

[7] = tested on: laboratory animals (mice, rats, dogs, fish and birds); settings: even at high concentrations; cited from earlier work
[8] = cited from earlier work

For `CC1=CC(=O)CC(C)(C)[C@@]1(O)/C=C/C(C)=C\C(=O)O` (racemic) [ABA, (±)-cis, trans ABA], which “intracellular cADPR concentration ([cADPR]i)” value (human granulocytes [1]) is on record?
The value was “increase”.

What about the “[Ca2+]i” value (human granulocytes [2]) of the same compound?
The value was 170 ± 25 nM.

What about the “production of reactive oxygen species (ROS)” value (human granulocytes [3]) of the same compound?
The value was “stimulation; also recorded: ↑ROS release”.

What about the chemokinesis [4] of the same compound?
Its chemokinesis is “increase; also recorded: ↑chemokinesis”.

Which “reduction of the LPS-induced increase of intracellular ABA content” value [5] does the source give for `Cn1cc(-c2ccccc2)c(=O)c(-c2cccc(C(F)(F)F)c2)c1` [Fluridone, 1-methyl-3-phenyl-5-(α,α,α-trifluoro-m-tolyl)-4-pyridone] here?
The value was 60%.

And the “inhibition of the increase of intracellular ABA concentration” value ([6]; granulocytes, f-MLP-induced)?
The value was 40%.

And the “inhibition of the increase of intracellular ABA concentration” value ([6]; lymphocytes, PMA-induced)?
The value was 50%.

And the “histamine release by LPS-stimulated (unfractionated) blood cells” value (whole blood cells)?
The value was “completely inhibits”.

What about the “toxic, mutagenic, teratogenic or cancerogenic effects” value [7] of the same compound?
Its value is “absence of toxic, mutagenic, teratogenic or cancerogenic effects”.

What about the “maximum permissible intake allowed in humans” value ([8]; from chronic toxicity in rats fed with fluridone, dose reduction of two logarithms) of the same compound?
Its value is 4.8 mg/kg/day.

What about the “ADI (acceptable daily intake)” value ([8]; humans) of the same compound?
Its value is 0.08 mg/Kg/die.
